Columns and labels:
[1] = test system: HER2-overexpressing human breast cancer cell line BT-474; format: in vivo; settings: alone or combined
Procedure: The study is performed in human breast cancer cell line BT-474 grown as orthotopic xenografts in NMRI-Foxn1^nu mice. Day 1 was the first day, day 42 the last day of treatment and final day of analysis.
BT-474 is a HER2-overexpressing human breast cancer cell line that can be obtained from ATCC (lot #61136823). Cells are cultured in T75, T175 and 5-Layer tissue culture flasks at 37° C. and 5% CO2. The medium used is Hybri-Care (ATCC, 46-X) supplemented with 1.5 g/L sodium bicarbonate (GIBCO, Ref.: 25080-060) and 10% FCS (Cytiva HyClone Characterized FBS, SH30084.03n). Cultures are split twice weekly with a ratio of 1:2-1:3.
To establish subcutaneous tumors, BT-474 cells are harvested by centrifugation, washed and resuspended in PBS+5% FCS at 5×10^7 cells/ml. […] cell suspension containing 5×10^6 cells is injected orthotopically into the right mammary fat pad of isoflurane anesthetized mice (1 site per mouse).
Pertuzumab can be purchased from Roche Pharma AG. Pertuzumab is diluted with saline (0.9%) and administered intraperitoneally with a volume of 10 ml/kg.
(§1) Mice in the control group are treated with vehicle, i.e.: • (i) 0.5% Natrosol, administered once daily for the duration of the treatment intragastrally by gavage needle with a volume of 10 ml/kg body weight; and • (ii) saline (0.9%), administered once every 3 weeks intravenously into the tail vein with a volume of 5 ml/kg; and • (iii) saline (0.9%), administered once every week intraperitoneally with a volume of 10 ml/kg.
Tumor volumes and side effects are monitored as described in Example 1 (see paragraph 1.1.6), except that control animals are sacrificed when the median tumor volume of the group reaches a size of approximately 470 mm^3.
The statistical evaluation of the tumor volume and the body weight is conducted on day 42 (last day of the study). Apart from this, statistical analysis was performed as described in Example 1 (see paragraph 1.1.7), with no evaluation of tumor growth after stop of treatment.

parental NCI-N87 cells = experiment: Proliferation assay (CellTiter Glo), parental NCI-N87 cells; format: cell-based, human; settings: 5 days of incubation, in vitro
Procedure: Per well, 1000 cells are seeded in 40 μL medium in white, sterile 384-well culture plates (TC-treated; PerkinElmer #6007680) and incubated overnight in a humidified incubator at 37° C. and 5% CO2. 0.1% DMSO-control or serial compound dilution in triplicates are added. […] After 5 days of incubation with test compounds, the cells plates are measured upon addition of CellTiter Glo Luminescent Cell Viability Reagent (Promega, #G9243) to assess cell viability. The plates are placed on a shaker for five minutes and additionally incubated for 10 minutes at room temperature to induce cell lysis and to stabilize the luminescent signal. The luminescent signal of each well is measured in an EnSpire Multilabel Plate Reader 658 (PerkinElmer). The dose response curves are fit and visualized using Boehringer Ingelheim's proprietary software MegaLab and PRISM (GraphPad Inc.).

[2] = test system: HER2-overexpressing human NSCLC cell line Calu-3; experiment: Calu-3 subcutaneous xenograft, zongertinib with trastuzumab and/or pertuzumab; format: in vivo, CB-17/Icr-Prkdc^scid mice; settings: day 42, zongertinib 20 mg/kg qdx42 p.o., trastuzumab 20 mg/kg q7dx6 i.p., pertuzumab 20 mg/kg q7dx6 i.p., alone or combined
Procedure: The study is performed in human NSCLC cell line Calu-3 grown as subcutaneous xenografts in CB-17/Icr-Prkdc^scid mice. Day 1 was the first day, day 42 the last day of treatment and final day of analysis.
Calu-3 is a HER2-overexpressing human NSCLC cell line that can be obtained from ATCC (lot 614492062). Cells are cultured in T75, T175 and 5-Layer tissue culture flasks at 37° C. and 5% CO2. The medium used is EMEM (Lonza BE12-662F) supplemented with 10% FCS (Cytiva HyClone Characterized FBS, SH30084.03n), 2 mM Glutamax (Gibco 35050-038), 0.5 mM sodium pyruvate (Sigma S8636). Cultures are split once weekly with a ratio of 1:1.5-1:2.
To establish subcutaneous tumors, Calu-3 cells are harvested by centrifugation, washed and resuspended in PBS+5% FCS at 7×10^7 cells/ml. 50 μl cell suspension containing 3.5×10^6 cells is injected subcutaneously into the right flank of mice (1 site per mouse).
as §1, with “every” for “every 3 weeks intravenously into the tail vein with a volume of 5 ml/kg; and • (iii) saline (0.9%), administered once every”
Tumor volumes and side effects are monitored as described in Example 1 (see paragraph 1.1.6).
The statistical evaluation of the tumor volume and the body weight is conducted on day 21 (last day of the study). Apart from this, statistical analysis was performed as described in Example 1 (see paragraph 1.1.7), with no evaluation of tumor growth after stop of treatment.

Structure (SMILES): C=CC(=O)NC1CCN(c2ncc3ncnc(Nc4ccc(Oc5ccc6c(c5)ncn6C)c(C)c4)c3n2)CC1 [Zongertinib, N-{1-[8-({3-methyl-4-[(1-methyl-1H-1,3-benzodiazol-5-yl)oxy]phenyl}amino)-[1,3]diazino [5,4-d]pyrimidin-2-yl]piperidin-4-yl}prop-2-enamide]
- Regressions >30% ([1]; day 42, tumors regressed/total (partial response), zongertinib 10 mg/kg qdx42 p.o., T-DXd 1 mg/kg q21dx2 i.v., pertuzumab 20 mg/kg q7dx6 i.p.): 0/8
- stable disease (tumors remained stable) ([1]; day 42, zongertinib 10 mg/kg qdx42, T-DXd 1 mg/kg q21dx2): 2 out of 8
- TGI ([1]; day 42, zongertinib 10 mg/kg qdx42 p.o., T-DXd 1 mg/kg q21dx2 i.v., pertuzumab 20 mg/kg q7dx6 i.p.): 70%
- effect on tumor growth (median tumor volumes over time) ([1]; zongertinib 10 mg/kg qdx42, T-DXd 1 mg/kg q21dx2, pertuzumab 20 mg/kg q7dx6): delayed tumor growth, but median tumor volumes increased in the course of the experiment
- sensitivity (dose response, cell viability) (parental NCI-N87 cells): sensitive
- Regressions >30% ([2]; tumors regressed/total (partial response)): 0/10
- TGI [2]: 64%

Source: patent US20250228858A1, “ANTI-CANCER COMBINATION THERAPY” (Boehringer Ingelheim International GmbH, priority 2023, published 2025)
